Data published in US20120316203A1, “Compositions and Methods for Inhibition of Cancers” (THE OHIO STATE UNIVERSITY RESEARCH FOUNDATION, priority 2009, published 2012).

Experiments:
[1] = test system: pSTAT3 (Tyr705 and Ser727), cleaved caspase-3 and PARP in A2780, A549, HepG2, MCF-7, HCT-116 cells; assay: Western blot of STAT3 signaling and apoptotic markers in cancer cells; format: cell-based, human; conditions: 10 μM, 24 h
Experimental: Cells were grown in RPMI 1640 medium and treated with DMSO (control) or HO-3867 ([…]). Equal volumes of DMSO (0.1% v/v) were present in both groups. After treatment, cell lysates were prepared in nondenaturing lysis buffer (10 mM Tris-HCl (pH 7.4), 150 mM NaCl, 1% Triton X-100, 1 mM EDTA, 1 mM EGTA, 0.3 mM phenylmethylsulfonyl fluoride, 0.2-mM sodium orthovanadate, 0.5% NP-40, 1 lag/ml aprotinin, and 1 lag/ml leupeptin). Cell lysates were centrifuged at 10,000 RPM for 20 min at 4° C., and the supernatant was separated. The protein concentration in the lysates was determined using a Pierce detergent-compatible protein assay kit. For Western blotting, 25 to 50 lag of protein lysate per sample was denatured in 2× sample buffer and subjected to SDS-PAGE on a 10 or 12% Tris-glycine gel. The separated proteins were transferred to a PVDF membrane and then the membrane was blocked with 5% nonfat milk powder (w/v) in 10 mM Tris, 100 mM NaCl, 0.1% Tween 20 for 1 h at room temperature or overnight at 4° C. The membranes were incubated with the primary antibodies described above. The bound antibodies were detected with horseradish peroxidase (HRP)-labeled sheep anti-mouse IgG or HRP-labeled donkey anti-rabbit IgG (Amersham) using an enhanced chemiluminescence detection system (ECL Advanced Kit). Protein expression was determined using Image Gauge version 3.45.

[2] = test system: USP2a, ubiquitinated FAS and FAK in A2780 and SKOV3 cells; assay: Ubiquitination of FAS/FAK and USP2a level; format: cell-based, human
Experimental: FIG. 15: HO-3867 downregulates FAS and FAK levels via proteasome pathways. To catch any ubiquitinated proteins in the cell lysates, agarose beads coated with domains having affinity to ubiquitin were incubated in the lysates at 4° C. for 2 hours. After washing the beads, the ubiquitinated proteins were subjected to immunoblot for FAS and FAK and blotted by the ubiquitin antibody. A predominant ubiquitination of FAS and FAK is seen in the HO-3867-treated A2780 and SKOV3 cells under proteasomal inhibition using MG 132 (50 μM).
The intracellular amount of rapid-turnover proteins, such as FAS and FAK, is tightly regulated by the ubiquitin-dependent proteolytic pathway. The fast and significant decrease in the FAS and FAK expressions observed in the HO-3867-treated cells prompted us to check any involvement of ubiquitin-dependent degradation mechanism.

[3] = test system: HER1, SREBP1, ERK1/2, MMP-2 and VEGF in A2780 and SKOV3 cells; assay: Blotting of FAS/FAK-regulating proteins; format: cell-based, human; conditions: 10 μM, 24 h
Experimental: Cells in RPMI 1640 medium were treated with DMSO (control) or HO-3867 (10 μM) for 24 h. Equal volumes of DMSO (0.1% v/v) were present in each treatment. Following treatment, the cell lysates were prepared in nondenaturing lysis buffer containing 10-mM Tris-HCl (pH 7.4), 150-mM NaCl, 1% Triton X-100, 1-mM EDTA, 1-mM EGTA, 0.3-mM phenylmethylsulfonyl fluoride, 0.2-mM sodium orthovanadate, 0.5% NP40, 1-μg/ml aprotinin, and 1-μg/ml leupetin. The lysates were centrifuged at 10,000×g for 20 min at 4° C., and the supernatant was separated. The protein concentration in the lysates was determined using a Pierce detergent-compatible protein assay kit. For Western blotting, 25 to 50 μg of protein lysate per sample was denatured in 2×SDS-PAGE sample buffer and subjected to SDS-PAGE on a 10% tris-glycine gel. The separated proteins were transferred to a PVDF membrane and blocked with 5% nonfat milk powder (w/v) in TBST (10-mM Tris, 10-mM NaCl, 0.1% Tween 20) for 1 h at room temperature or overnight at 4° C. The membranes were then incubated with the primary antibodies. The bound antibodies were detected with horseradish peroxidase (HRP)-labeled sheep anti-mouse IgG or HRP-labeled donkey anti-rabbit IgG using an enhanced chemiluminescence detection system (ECL Advanced kit). Protein expressions were determined using Image Gauge version 3.45.

[4] = target: T1, FAS in A2780 and SKOV3 cells (Homo sapiens, UniProt P49327); assay: Fatty acid synthase activity assay; format: cell-based; conditions: 10 μM, 12 or 24 h, both cell lines
T1 construct: endogenous in cells; host or cells: A2780 and SKOV3 human ovarian cancer cells
Experimental: The FAS activity was determined spectrophotometrically at 37° C. in particle-free supernatants by measuring the decrease of absorption at 340 nm due to oxidation of NADPH.

HSMC = assay: Intracellular ROS by DCF fluorescence, HSMC; format: cell-based, human; conditions: 10 μM, 12 h
Experimental: The ROS levels in cells treated with DAPs were determined using H2DCF-DA, a membrane-permeative fluorogenic probe. The acetate and acetoxymethyl ester groups of this probe are enzymatically cleaved inside living cells. The probe can then be oxidized by intracellular oxidants (ROS) to give a product, DCF, which emits a strong, green fluorescence (λex=504 nm; λem=529 nm). The fluorescence intensity is proportional to the level of cellular oxidants. […] The cells were further incubated in the dark for 20 min and washed with protein-free medium, and then fluorescence images were immediately captured with a Nikon Eclipse TE2000-U camera system using excitation/emission at 495/520 nm. The captured images were then analyzed using MetaMorph image analysis software.

T1 sequence (P49327 whole entry): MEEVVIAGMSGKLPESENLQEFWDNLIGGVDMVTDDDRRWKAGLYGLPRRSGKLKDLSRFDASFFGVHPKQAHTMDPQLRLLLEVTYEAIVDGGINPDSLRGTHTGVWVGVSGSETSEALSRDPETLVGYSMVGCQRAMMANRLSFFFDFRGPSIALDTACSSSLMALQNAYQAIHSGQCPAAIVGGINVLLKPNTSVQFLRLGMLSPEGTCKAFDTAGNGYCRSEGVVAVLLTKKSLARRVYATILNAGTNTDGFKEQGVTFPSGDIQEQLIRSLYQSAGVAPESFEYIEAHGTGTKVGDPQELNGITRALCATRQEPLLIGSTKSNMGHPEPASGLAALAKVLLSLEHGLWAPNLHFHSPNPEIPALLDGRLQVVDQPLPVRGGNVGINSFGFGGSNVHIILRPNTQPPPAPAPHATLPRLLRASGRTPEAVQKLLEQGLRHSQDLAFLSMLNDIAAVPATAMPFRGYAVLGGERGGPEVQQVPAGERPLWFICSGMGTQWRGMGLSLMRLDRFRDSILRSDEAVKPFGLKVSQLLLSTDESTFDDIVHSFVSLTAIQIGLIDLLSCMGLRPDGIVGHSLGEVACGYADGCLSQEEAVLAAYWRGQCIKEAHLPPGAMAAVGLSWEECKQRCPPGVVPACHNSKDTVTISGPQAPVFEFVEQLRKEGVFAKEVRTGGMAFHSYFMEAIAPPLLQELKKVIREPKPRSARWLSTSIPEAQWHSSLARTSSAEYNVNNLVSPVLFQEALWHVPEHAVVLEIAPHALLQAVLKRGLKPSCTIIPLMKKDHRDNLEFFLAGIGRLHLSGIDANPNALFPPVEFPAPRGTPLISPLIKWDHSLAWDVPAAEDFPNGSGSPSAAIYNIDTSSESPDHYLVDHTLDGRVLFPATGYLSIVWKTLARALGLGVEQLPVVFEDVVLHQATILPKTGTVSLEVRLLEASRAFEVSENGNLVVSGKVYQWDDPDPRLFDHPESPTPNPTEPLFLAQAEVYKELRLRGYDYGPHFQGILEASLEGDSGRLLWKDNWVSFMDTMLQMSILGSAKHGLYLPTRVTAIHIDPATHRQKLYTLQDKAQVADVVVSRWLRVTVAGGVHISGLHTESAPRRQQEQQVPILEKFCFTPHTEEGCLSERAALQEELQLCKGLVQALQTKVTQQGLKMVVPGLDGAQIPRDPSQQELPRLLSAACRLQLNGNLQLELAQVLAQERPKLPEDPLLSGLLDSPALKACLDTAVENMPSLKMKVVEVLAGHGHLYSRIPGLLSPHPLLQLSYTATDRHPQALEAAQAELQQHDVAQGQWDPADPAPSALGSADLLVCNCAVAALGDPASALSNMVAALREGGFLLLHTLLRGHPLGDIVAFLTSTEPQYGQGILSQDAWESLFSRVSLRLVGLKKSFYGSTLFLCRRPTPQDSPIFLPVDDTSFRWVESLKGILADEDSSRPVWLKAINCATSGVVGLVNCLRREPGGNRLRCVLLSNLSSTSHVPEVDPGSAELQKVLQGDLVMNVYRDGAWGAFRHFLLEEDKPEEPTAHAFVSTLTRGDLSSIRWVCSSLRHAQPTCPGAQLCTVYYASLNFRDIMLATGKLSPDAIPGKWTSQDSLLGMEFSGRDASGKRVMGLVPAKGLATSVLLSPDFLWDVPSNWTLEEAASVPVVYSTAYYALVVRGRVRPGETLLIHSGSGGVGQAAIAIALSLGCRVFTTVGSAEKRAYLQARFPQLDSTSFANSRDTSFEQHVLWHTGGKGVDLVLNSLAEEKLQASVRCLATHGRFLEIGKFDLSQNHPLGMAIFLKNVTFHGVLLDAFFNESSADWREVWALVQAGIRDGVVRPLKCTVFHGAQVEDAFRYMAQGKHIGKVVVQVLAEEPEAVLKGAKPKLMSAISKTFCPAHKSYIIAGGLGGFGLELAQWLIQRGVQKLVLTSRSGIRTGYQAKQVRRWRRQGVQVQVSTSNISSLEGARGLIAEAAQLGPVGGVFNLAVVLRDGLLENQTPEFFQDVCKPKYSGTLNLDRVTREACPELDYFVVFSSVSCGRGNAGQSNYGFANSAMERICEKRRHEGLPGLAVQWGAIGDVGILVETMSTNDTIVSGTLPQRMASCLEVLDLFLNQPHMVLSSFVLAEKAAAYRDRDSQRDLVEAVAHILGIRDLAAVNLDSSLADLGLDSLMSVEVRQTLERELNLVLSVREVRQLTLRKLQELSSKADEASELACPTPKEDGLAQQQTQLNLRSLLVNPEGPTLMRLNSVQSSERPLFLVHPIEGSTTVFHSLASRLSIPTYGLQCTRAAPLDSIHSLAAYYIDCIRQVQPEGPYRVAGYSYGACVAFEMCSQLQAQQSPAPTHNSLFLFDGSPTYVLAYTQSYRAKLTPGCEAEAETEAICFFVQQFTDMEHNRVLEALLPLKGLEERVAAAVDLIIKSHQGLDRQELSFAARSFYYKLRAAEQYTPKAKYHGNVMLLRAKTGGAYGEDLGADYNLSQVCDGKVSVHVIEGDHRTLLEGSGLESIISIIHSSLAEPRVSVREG

`CC1(C)C=C(CN2C/C(=C\c3ccc(F)cc3)C(=O)/C(=C/c3ccc(F)cc3)C2)C(C)(C)N1O` [HO-3867, 1-[(1-oxyl-2,2,5,5-tetramethyl-2,5-dihydro-1H-pyrrol-3-yl)methyl]-(3E,5E)-3,5-bis(4-fluorobenzylidene)piperidin-4-one] was tested, and the “Tyr705 and Ser727 pSTAT3 levels in cancer cells” value [1] was “significantly attenuated”, the “activated caspase-3 and PARP in cancer cells” value [1] was “significant elevation” and the USP2a level [2] was “clearly downregulated”. The “polyubiquitination on FAS and FAK” value ([2]; co-incubation with MG-132) was “enhanced polyubiquitination”, the “pHER2, pERK1/2, SREBP1, MMP-2, and VEGF” value [3] was “inhibited” and the FAS activity [4] was “significantly reduced”. For the same compound, the “amounts of ROS in HSMC compared to A2780 cells” value (HSMC) was “significantly lower amounts of ROS” and the “intracellular ROS generation (DCF fluorescence) in HSMC” value (HSMC) was “not significantly different from that of the untreated cells”.
